{
  "source": "patent EP4541815A1",
  "about": "“ANTIBODY AGAINST HEPATITIS B VIRUS, PREPARATION THEREOF AND USE THEREOF” (priority 2022, dated 2023)",
  "system": "HBV D genotype",
  "assay": "Antiviral activity in HBV-infected liver-humanized chimeric hFRG mouse model, plasma HBV DNA by qPCR",
  "format": "in vivo",
  "details": "hFRG mice",
  "method": "To investigate the therapeutic efficacy of afuco-A14 GA LS against established HBV infection, the efficacy of afuco-A14 GA LS administered alone and in combination with entecavir, was evaluated in a liver-humanized chimeric hFRG (Fah^-/- Rag2^-/- /IL2rg^-/-) mouse model. Entecavir is a hepatitis B virus reverse transcriptase inhibitor that treats hepatitis B by inhibiting viral replication. The disadvantage of entecavir is the rebound of viral replication upon discontinuation of treatment.\nA control group (saline), an afuco-A14 GA LS monotherapy group (10 mg/kg), an entecavir (ETV) monotherapy group (ETV, 0.1 mg/kg), and a combination therapy group of afuco-A14 GA LS (10 mg/kg) and entecavir (0.1 mg/kg) were set up in the experiment, respectively. Mice were administered (afuco-A14 GALS was administered subcutaneously and ETV was administered orally) starting on day 28 (D28) post HBV infection (HBV D genotype, 2 × 10^9 GE/mouse). Thereafter, afuco-A14 GA LS was administered subcutaneously once a week (D35, D42, D49, D56, D63, and D70), while ETV was administered once a day until D70. The observation period continued after discontinuation until D91.\nPlasma from experimental mice was collected by venous blood sampling, and then qPCR was used to quantitatively detect the level of HBV DNA in the plasma of the mice. […]",
  "data": [
    {"smiles": "C=C1[C@H](CO)[C@@H](O)C[C@@H]1n1cnc2c(=O)[nH]c(N)nc21", "note": "[ETV, entecavir]", "values": [
      {"measurement": "reduction of mean viral titre at the end of the study (D91) compared to the starting point of treatment (D28)", "setting": "21 days post-discontinuation, afuco-A14 GA LS 10 mg/kg s.c., ETV 0.1 mg/kg oral", "result": 7.15, "unit": "fold"},
      {"measurement": "decrease of viral DNA levels at the final dose (D70)", "setting": "treatment D28 to D70, afuco-A14 GA LS 10 mg/kg s.c. once a week, ETV 0.1 mg/kg oral once a day, compared to control group (saline)", "result": "~436", "unit": "fold"}
    ]}
  ]
}
